Test [1] relates to MTB-FITC infected macrophages. Kind of test: Phagolysosome maturation by flow cytometry of FITC-labelled MTB infected macrophages. The note with it: MTB-FITC MOI 1 for 3 hours, 5 μM S1P for 30 minutes; S1P non-treated 63.4%. The format is cell-based, human. The protocol:
In some experiments MTB aliquots, after thawing at room temperature, centrifuged at 10000 rpm for 10 minutes, suspended in PBS and sonicated for 1-2 minutes, were labelled with fluorescein isothiocyanate (FITC) (Sigma). FITC, pre-suspended at 1 μg/ml concentration, was added to the bacterial suspension, which was incubated at 37° C. in the presence of 5% CO2 for about 90 minutes. At the end of the incubation the bacterial suspension was washed three times with centrifugation at 14000 rpm for 15 minutes and suspended in PBS at required concentration.
By virtue of extreme sensitivity of fluorescein isothiocyanate (FITC) to acid pHs this molecule was used to monitor the phagosome acidity and have therefore information about maturation stage of phagolysosome. To this aim, bacteria were labelled with fluorescein isothiocyanate (FITC) as above described. Infection was carried out using FITC labelled bacteria. Then, cells were washed after 3 hours and stimulated for 30 minutes with 5 μM sphingosine 1-phosphate and following 1.5% paraformaldehyde (PFA) fixated and finally monitored by flow cytofluorometry.
In order to evaluate the effect of S1P on a specific antimicrobial activity as the maturation of phagolysosome, the infection with FITC-labelled MTB was carried out and the fluorescence values of FITC-MTB were used as indicators of the phagolysosome maturation. […]
(A flow cytometer gives signals particle by particle.)

In test [2] the test system is Mycobacterium tuberculosis. The test is described as follows: Colony forming units of H37Rv M. tuberculosis in differentiated THP-1 cells. In kind it is cell-based. Particulars: THP-1 macrophage cell line, MOI 1:10 or 1:1, 5 μM, up to 5 or 7 days. As for the experimental part: Human monocytic THP-1 leukemia line cells were used in this example as a model for macrophage response. In order to obtain macrophage phenotype, 5×10^5/ml THP-1 cells were induced to differentiate by 48 hours incubation in the presence of 20 ng/ml Phorbol Myristate Acetate (PMA). Differentiated THP-1 cells (dTHP-1) were then centrifuged three times and suspended in complete medium [RPMI 1640 (Gibco BRL) supplemented with 10% fetal bovine serum, 5 mM L-glutamine) (Invitrogen), 1 mM sodium pyruvate (Gibco BRL) and non-essential amino acids (Euroclone), 5 μg/ml gentamicin (Invitrogen)]. dTHP-1 were then infected for 3 hours with H37Rv M. tuberculosis at the multiplicity of infection of 1:10 (FIG. 8A) or 1:1 (FIG. 8B) bacterium/cell. After infection cells were washed three times with RPMI 1640 and incubated in complete medium for further 1, 2 and 5 days (FIG. 8A) or 1 and 7 days (FIG. 8B) in the presence or absence of sphingosine 1-phosphate used at the concentration of 5 μM. […]

Test [3] deals with Cathepsin D. The test is described as follows: Western blot of Cathepsin D in macrophage phagosomal fractions after latex beads internalisation. In kind it is cell-based, human. The note with it: 5 μM S1P, 24 hours after latex beads internalisation. As for the experimental part:
In order to analyse the expression of an intralysosomal protein within beads containing phagolysosomes the macrophage phagosomal fraction was separated. Particularly, cells were incubated with sterile latex beads ([…]) (Sigma), 1: 200 diluted, in culture medium for 1 hour in the presence of 5% CO2 and then treated with 5 μM S1P.
Separation of the phagosomes was carried out by centrifugation on sucrose gradient. Cells were washed three times with PBS (twice for 10 minutes) and then again incubated for 24 hours at 37°C. Following the internalisation and 24 hour incubation period cells were washed with cold PBS and collected using a little scraper in PBS at 4° C., then centrifuged at 2000 rpm for 10 minutes at 4° C. and finally washed with homogenising buffer (250 mM sucrose, 3 mM imidazole, pH 7.4) again at 4° C. Cellular pellet was suspended in 1 ml homogenising buffer and cells were lysed with an homogenizer. Phagosomes were isolated by centrifugation on sucrose gradient. Cells, suspended in 1 ml of PBS, were added to 1 ml of 40% sucrose solution and such a suspension was stratified on 2 ml of 62% sucrose solution in ultracentrifuge tubes. Then 2 ml of 35%, 25% and 10% sucrose solutions were stratified (all the solutions were prepared in 3 mM imidazole, pH 7.4). The tubes were ultra-centrifuged using SW41 rotor at 100000 g at 4° C. […]
On the technique in general: Immunoblotting shows a protein as a band on a membrane.

Test [4] has as its system macrophage PLD. In kind it is cell-based, human.

`CCCCCCCCCCCCC/C=C/[C@@H](O)[C@@H](N)COP(=O)(O)O` [S1P, D-erythro-sphingosine 1-phosphate]: in test [1], the “% of fluorescent macrophages (FITC-MTB fluorescence)” value is on record as 38.9%. Besides, the “intracellular replication of Mycobacterium tuberculosis (CFU)” value in test [2] is “inhibits”. Besides, the “amount of intralysosomal protein (Cathepsin D) in the phagosomal fraction versus non-treated macrophages” value in test [3] was “higher”. Moreover, in test [4], the “Pet-OH production, index of PLD activity, versus MTB infected non S1P treated macrophages” value is recorded as “higher”; the “S1P concentration giving maximum activation of macrophage PLD” value was 5 µM; the “time of maximum activation of macrophage PLD” value came out at 30 min.

For the origin of these results see patent publication US9078907B2, “Immunoregulator compounds” (Universita Degli Studi Di Roma “Tor Vergata”, priority 2001, dated 2015).
